Patent US10392363B2, “Methods for treating protozoan infections” (Neoculi Pty Ltd., priority 2014, dated 2019)
Marks after values point to notes of the source that are not given here.

Key:
[1] = Exposure in male Swiss outbred mice following IV administration; type: in vivo; details: IV 5 mg/kg
Method: The systemic exposures of NCL026, NCL195, NCL259 and NCL812 were studied in nonfasted male Swiss outbred mice weighing 26.2-32.1 g. Mice had access to food and water ad libitum throughout the pre- and post-dose sampling period. Each compound was administered IV via a bolus injection into the tail vein (vehicle 20% (v/v) DMSO in PEG400, 1 mL/kg dose volume, n=8 mice per compound). […] A maximum of two samples were obtained from each mouse, with samples being taken either via submandibular bleed (approximately 120 μL; conscious sampling) or terminal cardiac puncture (0.6 mL; while mice were anaesthetised using inhaled Isoflurane). No urine samples were collected as mice were housed in bedded cages during the study. Blood was collected directly into polypropylene Eppendorf tubes containing heparin as anticoagulant, and stabilisation cocktail (containing Complete® (a protease inhibitor cocktail with EDTA) and potassium fluoride) to minimise the potential for ex vivo degradation of the test compounds in blood/plasma samples. Once collected, blood samples were centrifuged immediately, supernatant plasma was removed, and stored at −80° C. until analysis by LC-MS using methods standard in the art. Each compound was administered in a vehicle composed of 20% (v/v) DMSO in PEG400. Formulations were prepared by dissolving the compounds in DMSO prior to addition of PEG400. Formulations were not filtered prior to dosing and were administered to mice within 2.5 h of preparation. […] The dose administered to each mouse was calculated on the basis of the measured concentration in the IV formulation, the dose volume and individual mouse body weight. Plasma concentration versus time data were analysed using non-compartmental methods (WinNonlin Version 6.3.0.395). Standard calculations for each pharmacokinetic parameter were calculated using standard methods in the art.

[2] = Solubility estimates using nephelometry; type: physicochemical; details: pH 6.5 phosphate buffer
Method: Compound in DMSO was spiked into either pH 6.5 phosphate buffer or 0.01 M HCl (approx. pH 2.0) with the final DMSO concentration being 1%. Samples were then analysed via Nephelometry to determine a solubility range. (See C. D. Bevan and R. S. Lloyd, Anal. Chem. 2000, 72, 1781-1787).

[3] = values marked a, b are approximations

Apparent t1/2 ([1]; plasma, value marked b is an approximation): 2.9 h
AUC0-inf [1, 3]: 5.5^a h * μM
Plasma CL [1, 3]: 56.0^a mL/min/kg
Plasma Vss [1, 3]: 12.8^a L/kg
kinetic solubility under neutral pH conditions [2]: more moderate
Compound: Cl.[H]/N=C(\N)NN=C(CC1CCCCC1)c1ccc(Cl)cc1 [NCL259]
